Where two headings read alike, the source gives them in different places.
Assays:
human EP4 receptor = biological target: T1, human EP4 receptor (Homo sapiens, UniProt P35408); assay: Radioligand ([3H]PGE2) competition displacement binding, human EP4 receptor membranes; conditions: [3H]PGE2 displacement, read-out: pKi EP4 (converted)
T1 construct: expressed in transfected cells
Experimental: (§1) Membranes were prepared from cells stably transfected with human EP receptor cDNA. In brief, cells were cultured to confluency, scraped from culture flasks, and centrifuged (800 g, 8 minutes, 4° C.). Cells were twice washed in ice cold homogenisation buffer containing 10 mMTris-HCl, 1 mM EDTA.2Na, 250 mM sucrose, 1 mM PMSF, 0.3 mM indomethacin, pH 7.4, homogenised and re-centrifuged as before. The supernatant was stored on ice and pellets re-homogenised and re-spun. Supernatants were pooled and centrifuged at 40000 g, 10 minutes, 4° C. Resultant membrane pellets were stored at −80° C. until use.
(§2) For assay, membranes expressing human EP4, EP3, EP2 or EP1 receptors were incubated in Millipore (MHVBN45) plates containing assay buffer, radiolabelled [^3H]PGE2 and 0.1 to 10 000 nM concentrations of compounds. Incubations were performed at suitable temperatures and for suitable times to allow equilibrium to be reached. Non-specific binding was determined in the presence of 10 uM PGE2. Bound and free radiolabel was separated by vacuum manifold filtration using appropriate wash buffers, and bound radiolabel was determined by scintillation counting. Constituents of each of the buffers are included in table 4 below.
(§3) The affinity or pKi of each compound for each receptor was calculated from the concentration causing 50% radioligand displacement (IC50) using the Cheng-Prusoff equation: [formula]
(§4) This approach follows that set out in Kenakin, T. P., Pharmacologic analysis of drug receptor interaction. Raven Press, New York, 2nd edition.

[1] = system: TNFα production by LPS-stimulated monocytes; assay: Monocyte assay: LPS-induced TNFα secretion; format: cell-based; conditions: Homo sapiens, inhibition of TNFα production, LPS 100 ng/ml, 24 h, mean of three donors
Source text: Monocytes are peripheral mononuclear phagocytes that participate in inflammatory responses. TNFα production by monocytes plays an important role in inflammatory responses and can cause considerable tissue damage if the level remained unchecked. Inhibition of TNFα secretion by activated monocytes may provide an attractive therapy for the treatment of inflammatory conditions.
A 96 well in vitro assay was established to determine the effects of test compounds on LPS-induced TNFα secretion by human peripheral blood monocytes. The level of TNFα in assay supernatants was quantified using a standard sandwich ELISA.
Human peripheral blood mononuclear cells from healthy volunteers were isolated from whole blood by Ficoll-Hypaque density centrifugation and adherence to plastic. The non-adherent lymphocyte fraction was used to set up the lymphocyte assay and the adherent monocytes were then recovered by scraping and subsequently used in the monocyte assay.
For the monocyte assay, the cells were plated onto 96-well plates and pre-treated for 1 hour at 37° C./5% CO2 with the test compound (Peak 1, mixture 1 acid; Peak 1, mixture 2 acid; AH-13205 racemate), followed by the addition of LPS (100 ng/ml) to initiate the reaction. The plate was incubated for 24 hours and supernatants were recovered for the measurement of TNFα production by ELISA.

human EP2 receptor [2] = biological target: T2, human EP2 receptor (Homo sapiens, UniProt P43116); assay: Radioligand ([3H]PGE2) competition displacement binding, human EP2 receptor membranes; conditions: for Ki: human EP2 membranes, [3H]PGE2 displacement, Cheng-Prusoff, mean of 4 experiments, read-out: pKi EP2 (converted)
T2 construct: expressed in transfected cells; host or cells: HEK cells (HEK-EP2)
T2 sequence (P43116 whole entry): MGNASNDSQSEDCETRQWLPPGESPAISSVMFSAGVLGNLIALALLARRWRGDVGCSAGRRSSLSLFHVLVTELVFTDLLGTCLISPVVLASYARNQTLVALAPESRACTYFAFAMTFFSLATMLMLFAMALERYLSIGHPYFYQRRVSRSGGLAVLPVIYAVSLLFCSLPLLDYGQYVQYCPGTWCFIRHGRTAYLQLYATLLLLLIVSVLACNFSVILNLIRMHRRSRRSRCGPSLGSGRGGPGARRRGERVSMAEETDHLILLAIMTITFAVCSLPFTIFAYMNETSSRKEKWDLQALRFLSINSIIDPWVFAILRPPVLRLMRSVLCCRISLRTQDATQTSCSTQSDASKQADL
Experimental: as §1, §2, §3, §4

human EP2 receptor [3] = biological target: T2, human EP2 receptor; assay: cAMP production in HEK cells stably expressing the human EP2 receptor; format: cell-based; conditions: 15 min stimulation, 4 experiments
Experimental: The following describes an in vitro assay to determine the effect of compounds on cyclase production, that is, to determine their functional efficacy at the EP2 receptor.
HEK cells stably expressing the human EP2 receptor were used for these assays. HEK-EP2 cells were cultured in 96-well, poly-L-lysine coated plates at a density of 50,000 cells/well, and grown to confluence in humidified […] at 37° C. Culture medium was DMEM supplemented with 10% foetal bovine serum, 100 U/ml penicillin, […], 2.5 µg/ml fungizone, 2 mM glutamine, 250 µg/ml geneticin and 200 µg/ml zeocin.
On reaching confluence, culture media was rinsed off using DMEM with no additions, before 175 µl assay buffer (DMEM containing 1 mM 3-isobutyl-1-methylxanthine and 3 µM indomethacin) was added to each well. This was allowed to incubate for 1 hr before the cells were stimulated with the test compounds (in triplicate) at final concentrations of 10^−9M to 10^−5M for 15 minutes. The assay was terminated by the addition of 25 µl 1M hydrochloric acid. Plates were then frozen for a minimum of 12 hours or until required for radioligand displacement assay.
Plates were thawed quickly at 37° C., and neutralised with 25 µl 1M sodium hydroxide. 30 µl of supernatant was transferred to 96-well Millipore (MAFNOB) plates coated with 0.1% Polyethylenimine. These supernatants were diluted by addition of 90[…]1 cAMP assay buffer (50 mM Tris, 5 mM EDTA, pH 7.0). A cAMP standard curve (10^−11M to 10^−5M) was constructed. 15 µl of 3′:5′-cAMP-dependent protein kinase (final concentration 8 µg/well), and 15 µl [^3H]-cAMP (final concentration 2 nM/well) were added to each well.
Plates were incubated on ice for 2 hours, before bound and free radiolabel were separated by vacuum filtration harvesting on the Millipore manifold, using ice cold water as the termination buffer. Filter plates were allowed to dry overnight, before addition of 50 µl Microscint. Radioactivity was determined using the Microbeta Trilux scintillation counter. cAMP accumulation was determined from the standard curve, and the values plotted as pmoles cAMP/well.

[4] = log scale, read-out: Mean Log (EC50) (converted)

T1 sequence (P35408 whole entry): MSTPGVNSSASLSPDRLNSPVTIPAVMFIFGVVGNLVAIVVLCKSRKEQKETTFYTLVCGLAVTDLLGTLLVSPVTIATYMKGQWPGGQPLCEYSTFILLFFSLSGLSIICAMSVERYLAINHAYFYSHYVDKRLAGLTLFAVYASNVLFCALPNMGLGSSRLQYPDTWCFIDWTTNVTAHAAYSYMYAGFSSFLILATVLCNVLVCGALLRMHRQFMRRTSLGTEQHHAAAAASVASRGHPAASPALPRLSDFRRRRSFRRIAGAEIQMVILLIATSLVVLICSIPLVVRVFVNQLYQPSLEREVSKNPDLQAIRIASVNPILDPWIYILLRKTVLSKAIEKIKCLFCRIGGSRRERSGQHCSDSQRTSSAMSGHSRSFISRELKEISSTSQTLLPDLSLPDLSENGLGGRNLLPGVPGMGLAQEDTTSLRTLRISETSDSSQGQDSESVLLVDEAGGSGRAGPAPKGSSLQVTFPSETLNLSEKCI

Row | SMILES | Ki (human EP4 receptor) | EC50 ([1]; read-out: Mean EC50) | EC50 [1, 4] | Ki (human EP2 receptor [2]) | EC50 (human EP2 receptor [3]; [4]) | EC50 (human EP2 receptor [3]; read-out: Mean EC50) | selectivity for EP2 over other EP receptors (from table 5) (human EP2 receptor [2]; comparison among the stereoisomers)
1 | CCCCCC(O)c1ccc(C2CCC(=O)C2CCCCCCC(=O)O)cc1 (racemic) [AH13205, (±)-trans-2-[4-(1-hydroxyhexyl)phenyl]-5-oxo-cyclopentaneheptanoic acid, reference compound] | 25100 nM | 19800 nM | 19800 nM | 398 nM | 32.4 nM |  | 
2 | CCCCC[C@H](O)c1ccc([C@H]2CCC(=O)[C@@H]2CCCCCCC(=O)O)cc1 (single isomer, unassigned) [Peak 1, Mixture 1 acid] | 10000 nM | 1780 nM | 1780 nM | 79.4 nM | 9.77 nM | 10 nM | 
3 | CCCCC[C@@H](O)c1ccc([C@H]2CCC(=O)[C@@H]2CCCCCCC(=O)O)cc1 (single isomer, unassigned) [Peak 1, Mixture 2 acid] | 7940 nM | 6730 nM | 6730 nM | 126 nM |  | 56 nM | most selective

From US20050209336A1, “EP2 receptor agonists” (priority 2003, published 2005)
